# Patent US10004723B2, “Aromatase inhibitor-releasing intravaginal device” (University of Saskatchewan, priority 2013, dated 2018)
# Marks after values point to notes of the source that are not given here.
# Tests used:
# [1] = test system: MCF-7 cancer cell preparations; assay: Reported IC50 in MCF-7 cancer cell preparations; parameters: species or system human; conditions: based on the reported IC50 values
# bovine granulosa cells = assay: Inhibition of estradiol production in bovine granulosa cell culture; format: cell-based; conditions: for concentration of estradiol compared with negative control (no FSH stimulation): letrozole 20 and 2 ng/mL, anastrozole 200 and 20 ng/mL, FSH-stimulated cells
# Procedure: Inhibition of estradiol production by two aromatase inhibitors (letrozole and anastrozole) and a benzimidazole (fenbendazole) was tested in vitro using a bovine granulosa cell culture.
# The granulosa cell culture protocol has been described previously (Zamberlam, Portela et al., 2011). Briefly, bovine ovaries were obtained at a local abattoir and transported to the lab where granulosa cells of antral follicles were collected by rinsing the follicle wall with Dulbecco's Modified Eagle Medium Nutrient Mixture F-12 (DMEMIF12, Invitrogen Life Technologies, Burlington, ON, Canada). Granullosa cells were maintained in culture for 6 days at 37° C. in 5% CO2, in 700 uL of culture medium (Zamberlam, Portela et al., 2011) which was replaced every 2 days. Cells were maintained in culture from Days 0 to 2, followed by the addition of 1 ng/mL of FSH from Days 2 to 4. On Day 4, depending on the treatment group, the culture medium was supplemented with 1 ng/mL FSH plus the estrogen inhibitor of interest, with FSH alone (positive control) or no FSH (negative control). On Day 6, the culture medium was collected and total protein was measured by the Bradford method (Bio-Rad, Mississauga, ON, Canada). Estradiol levels were determined by radioimmunoassay and expressed as total pg of estradiol per ug of protein.
# Three different levels of each compound were tested. The standard concentration used for letrozole was 20 ng/mL. […] The standard dose of fenbendazole was based on a reported maximum concentration 160 ng/mL fenbendazole in plasma after a single oral administration of 7.5 mg/kg of body weight in cattle (Sanyal, 1994). Low and high doses of each aromatase inhibitor were arbitrarily set at standard concentration× 1/10 and standard concentration×10, respectively (Table 1).
# [2] = test system: ovarian function in heifers; assay: Example III: ovarian function and ovulation synchrony after letrozole device plus PGF and GnRH in heifers; format: in vivo, cattle; parameters: Degree of synchrony (residuals of the interval from GnRH to ovulation): unit not given here; conditions: for Dominant follicle diameter (mm) at day before ovulation: GnRH 24 h later, mean ± SEM; for Ovulation failure / Ovulation in relation to GnRH: Before / Ovulation in relation to GnRH: Synchronized: number of heifers
# Excerpt: (§1) Heifers were examined daily by transrectal ultrasonography to determined the interval to ovulation, which served as control data for comparison with the synchronizing effect of subsequent aromatase inhibitor treatment in the same animals. One heifer was excluded for further use due to aggressive behaviour and handling difficulty. At the time of ovulation (Day 0), heifers were assigned randomly to five groups (n=8-10/group) and given an intravaginal device with a wax-based plus gel coat formulation containing 3 g of letrozole (as described in Example 1) for 4 days starting on Day 0, 4, 8, 12, or 16. At the time of device removal, heifers were given 500 μg PGF followed by 100 μg of GnRH 24 h later (FIG. 10).
# Ultrasound examinations were performed daily from two days before device insertion to 9 days after post-treatment ovulation. Observations from ultrasound examinations were recorded on a sketch sheet in which each ovary and its structures (CL and follicles a 4 mm in diameter) were represented by size and location. Ovulation was defined as the disappearance of a […] between successive examinations after GnRH treatment, and was confirmed by the subsequent detection of a CL [20]. The time of follicular wave emergence was defined as the day of ovulation, or retrospectively as the day when the dominant follicle was first identified at a diameter of 4 to 5 mm. If the dominant follicle was not identified until it reached 6 or 7 mm, the previous day was considered day of wave emergence. The dominant follicle of a wave was defined as the largest antral follicle of the wave. The day of onset of follicular and luteal regression was defined as the first day of an apparent progressive decrease in follicular and luteal diameters, respectively.
# Statistical analyses were done using the Statistical Analysis System software package (SAS Learning Edition 9.1, 2006; SAS Institute Inc., Cary, N.C., USA). Time-series hormone data and follicular diameter profiles were analyzed by analysis of variance for repeated measures using the PROC MIXED procedure to determine the effects of day of treatment (0, 4, 8, 12, and 16), time, and their interactions. Individual time-point comparisons among groups were compared using the least significant difference (LSD) test. Single-point measurements (dominant follicle diameter at device insertion, pre-ovulatory follicle diameter, CL diameter 9 days after the post-treatment ovulation and interval from GnRH treatment to ovulation) were analyzed by one-way analysis of variance. The proportion of heifers that ovulated were compared by Chi-Square test. The degree of synchrony among groups was compared by analysis of variance of the residuals of the interval from GnRH to ovulation. Significance was defined as P≤0.05.
# plasma estradiol = assay: Example III: plasma estradiol at device removal in heifers; format: in vivo, cattle
# Excerpt: as §1, with “One heifer was excluded for further use due to aggressive behaviour and handling difficulty.” left out
# Blood samples were collected by coccygeal venipuncture into 10 mL heparinized vacuum tubes (Becton Dickinson Vacutainer Systems, Franklin Lakes, N.J., USA). Samples were collected at the time of device removal for estradiol measurement, and at 3, 6 and 9 days following the post-treatment ovulation to determine progesterone concentrations: Additionally, blood samples were collected on Days 4, 8, 12, and 16 from heifers included in Group 16 (Day 0=ovulation) to serve as control data for comparison of estradiol concentrations at the time of device removal in other treatment groups (Groups 0, 4, 8, and 12). […] Blood samples were centrifuged at 1500×g for 20 min and plasma was separated and stored in plastic tubes at −20° C. until assayed.
# Plasma concentrations of estradiol were determined using a commercial radioimmunoassay kit (Double Antibody Estradiol; Diagnostic Products, Los Angeles, Calif., USA). The procedure was carried out in the Department of Animal Health and Biomedical Sciences, University of Wisconsin-Madison, as described, with the following modifications: Standards (0.78-100 pg/mL) were prepared in steroid-free (charcoal-treated) bovine plasma. The standards (250 μL in duplicate) and plasma samples (500 μL in duplicate) were extracted with 3 mL of diethyl ether, frozen in a dry-ice/methanol bath, decanted into assay tubes, and dried overnight under a fume hood. The dried samples and standards were re-suspended with 100 μL of assay buffer (0.1% gelatin in PBS).
# ovulation [3] = assay: Induction of ovulation in women; format: in vivo, human; conditions: women treated at 18 mm follicle diameter
# ovulation [4] = assay: Inhibition of ovulation in cattle; format: in vivo; conditions: treatment during the pre-ovulatory wave in cattle
# [5] = test system: MCF-7 cancer cell preparations; conditions: reported (Kudoh 1996; Bhatnagar 2007), read-out: half maximal inhibitory concentration (IC50); cited from earlier work
# [6] = single oral administration of 7.5 mg/kg of body weight in cattle (Sanyal, 1994); cited from earlier work
# [7] = letrozole groups combined, letrozole device added to PGF-GnRH protocol
compound,measurement,setting,value
"N#Cc1ccc(C(c2ccc(C#N)cc2)n2cncn2)cc1 [Letrozole, letrozole]",potency relative to anastrozole,[1],approximately 11 times
same,dose at which estradiol synthesis was reduced to that of non-FSH-stimulated cells,bovine granulosa cells,20 ng/mL
same,concentration of estradiol compared with negative control (no FSH stimulation),bovine granulosa cells,did not differ from that of the negative control
same,Dominant follicle diameter (mm) at day before ovulation,"[2]; 3 g letrozole device 4 days from Day 0, PGF at removal",12.8 ± 0.58^a mm
same,Dominant follicle diameter (mm) at day before ovulation,"[2]; 3 g letrozole device 4 days from Day 4, PGF at removal",16.4 ± 0.78^b mm
same,Dominant follicle diameter (mm) at day before ovulation,"[2]; 3 g letrozole device 4 days from Day 8, PGF at removal",14.5 ± 0.83^ab mm
same,Dominant follicle diameter (mm) at day before ovulation,"[2]; 3 g letrozole device 4 days from Day 12, PGF at removal",14.2 ± 0.48^ab mm
same,Dominant follicle diameter (mm) at day before ovulation,"[2]; 3 g letrozole device 4 days from Day 16, PGF at removal",11.7 ± 0.59^a mm
same,heifers with CL of normal diameter at last observation (percent),[2]; 9 days post-letrozole treatment ovulation,62.5%
same,Days from GnRH treatment to ovulation,[2]; Letrozole groups combined,1.9 ± 0.08 days
same,Degree of synchrony (residuals of the interval from GnRH to ovulation),[2]; Letrozole groups combined,0.24 ± 0.07
same,Ovulation failure (percent),[2]; Letrozole groups combined,6%
same,Ovulation in relation to GnRH: Before (percent),[2]; Letrozole groups combined,12%
same,Ovulation in relation to GnRH: Synchronized (percent),[2]; Letrozole groups combined,81%
same,heifers that underwent luteolysis prior to the last observation (percent),[2]; by 9 days after ovulation,37.5%
same,heifers that underwent luteolysis prior to the last observation,"[2]; by 9 days after ovulation, number of 48 heifers",18
same,Proportion that ovulated (heifers/treated),[2]; [7],42/48
same,Proportion that ovulated (percent),[2]; [7],87.1%
same,Ovulation failure,[2]; Letrozole groups combined,3
same,Ovulation in relation to GnRH: Before,[2]; Letrozole groups combined,6
same,Ovulation in relation to GnRH: Synchronized,[2]; Letrozole groups combined,39
same,Ovulation failure,[2]; treatment initiated on Day 0,0
same,Ovulation in relation to GnRH: Before,[2]; treatment initiated on Day 0,0
same,Ovulation in relation to GnRH: Synchronized,[2]; treatment initiated on Day 0,10
same,Ovulation failure,[2]; treatment initiated on Day 4,0
same,Ovulation in relation to GnRH: Before,[2]; treatment initiated on Day 4,3
same,Ovulation in relation to GnRH: Synchronized,[2]; treatment initiated on Day 4,7
same,Ovulation failure,[2]; treatment initiated on Day 8,1
same,Ovulation in relation to GnRH: Before,[2]; treatment initiated on Day 8,0
same,Ovulation in relation to GnRH: Synchronized,[2]; treatment initiated on Day 8,7
same,Ovulation failure,[2]; treatment initiated on Day 12,1
same,Ovulation in relation to GnRH: Before,[2]; treatment initiated on Day 12,0
same,Ovulation in relation to GnRH: Synchronized,[2]; treatment initiated on Day 12,10
same,Ovulation failure,[2]; treatment initiated on Day 16,1
same,Ovulation in relation to GnRH: Before,[2]; treatment initiated on Day 16,3
same,Ovulation in relation to GnRH: Synchronized,[2]; treatment initiated on Day 16,5
same,estradiol concentrations at device removal compared to respective controls,plasma estradiol; Group 0 (P=0.02),lower
same,estradiol concentrations at device removal compared to respective controls,plasma estradiol; Group 4 (P=0.05),lower
same,estradiol concentrations at device removal compared to respective controls,plasma estradiol; Group 8 (P=0.1),tended to be lower
same,estradiol concentrations at device removal compared to respective controls,plasma estradiol; Group 12 (P=0.9),not different from Day 12 controls
same,estradiol concentration at device removal (average),plasma estradiol; all letrozole-treated groups,2.1 ± 0.24 pg/mL
same,ovulation earlier than controls,ovulation [3],24 h
same,delay of ovulation,ovulation [4],24 h
same,IC50,[5],0.07 nM
"COC(=O)Nc1nc2ccc(Sc3ccccc3)cc2[nH]1 [Fenbendazole, fenbendazole]",reduction of estradiol secretion by FSH-stimulated granulosa cells,bovine granulosa cells; at the levels tested,did not reduce estradiol secretion significantly
same,maximum concentration in plasma,[6],160 ng/mL
"CC(C)(C#N)c1cc(Cn2cncn2)cc(C(C)(C)C#N)c1 [Anastrozole, anastrozole]",dose at which estradiol synthesis was reduced to that of non-FSH-stimulated cells,bovine granulosa cells,200 ng/mL
same,concentration of estradiol compared with negative control (no FSH stimulation),bovine granulosa cells,did not differ from that of the negative control
same,IC50,[5],0.82 nM
